Source: PubChem BioAssay AID330 (DTP/NCI, 2004)
Several values for one entry are separate records, joined by “and”; a condition that tells them apart may be missing. Equal entries are not always repeated. Inconclusive results and toxic doses are left out. The calls were made as follows: active = survival T/C of 150% or more; inactive = T/C below 125% in these data.

Test system: P388 leukemia ip, CD2F1 mice, survival T/C
Experiment: NCI In Vivo Anticancer Drug Screen. Data for tumor model P388 Leukemia (intraperitoneal) in CD2F1 (CDF1) mice
Conditions: endpoint: median survival time, higher = longer survival
In short: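 Mice carrying the transplanted tumor received test compound or vehicle. Survival was recorded in each group, and the value is the treated-group measurement divided by that of the vehicle-treated control group.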

[1] = dose: 100.0 mg/kg/injection, schedule: Q04DX003 (ip), vehicle: saline with Tween-80
[2] = dose: 200.0 mg/kg/injection, schedule: Q04DX003 (ip), vehicle: saline with Tween-80
[3] = dose: 400.0 mg/kg/injection, schedule: Q04DX003 (ip), vehicle: saline with Tween-80
[4] = dose: 50.0 mg/kg/injection, schedule: Q01DX005 (ip), vehicle: saline with Tween-80
[5] = dose: 50.0 mg/kg/injection, schedule: Q01DX005 (ip), vehicle: Klucel (hydroxypropylcellulose) (HPC)
[6] = dose: 100.0 mg/kg/injection, schedule: Q01DX005 (ip), vehicle: Klucel (hydroxypropylcellulose) (HPC)
[7] = dose: 200.0 mg/kg/injection, schedule: Q01DX005 (ip), vehicle: Klucel (hydroxypropylcellulose) (HPC)
[8] = dose: 60.0 mg/kg/injection, schedule: Q01DX005 (ip), vehicle: Klucel (hydroxypropylcellulose) (HPC)
[9] = dose: 120.0 mg/kg/injection, schedule: Q01DX005 (ip), vehicle: Klucel (hydroxypropylcellulose) (HPC)
[10] = dose: 240.0 mg/kg/injection, schedule: Q01DX005 (ip), vehicle: Klucel (hydroxypropylcellulose) (HPC)
[11] = dose: 100.0 mg/kg/injection, schedule: Q01DX005 (ip), vehicle: saline with Tween-80
[12] = dose: 200.0 mg/kg/injection, schedule: Q01DX005 (ip), vehicle: saline with Tween-80

Measured: T/C

CS(=O)(=O)OCC(O)C(O)COS(C)(=O)=O (centres undefined)
inactive: dose: 50.0 mg/kg/injection, schedule: Q01DX001 (ip), vehicle: Klucel (hydroxypropylcellulose) (HPC) 106 % of control | dose: 100.0 mg/kg/injection, schedule: Q01DX001 (ip), vehicle: Klucel (hydroxypropylcellulose) (HPC) 110 % of control | dose: 100.0 mg/kg/injection, schedule: Q01DX001 (ip), vehicle: saline 100 % of control | dose: 100.0 mg/kg/injection, schedule: Q01DX001 (oral), vehicle: saline 100 % of control | dose: 100.0 mg/kg/injection, schedule: Q01DX009 (oral), vehicle: saline 104 % of control | dose: 100.0 mg/kg/injection, schedule: Q03HX008 (ip), vehicle: saline 100 % of control | dose: 100.0 mg/kg/injection, schedule: Q03HX016 (ip), vehicle: saline 100 % of control | dose: 100.0 mg/kg/injection, schedule: Q03HX024 (ip), vehicle: saline 100 % of control | [1] 109 % of control | dose: 100.0 mg/kg/injection, schedule: Q04DX003 (ip), vehicle: saline 104 % of control | dose: 100.0 mg/kg/injection, schedule: Q08DX002 (ip), vehicle: saline 104 % of control | dose: 200.0 mg/kg/injection, schedule: Q01DX001 (ip), vehicle: Klucel (hydroxypropylcellulose) (HPC) 110 % of control | dose: 200.0 mg/kg/injection, schedule: Q01DX001 (ip), vehicle: saline 100 % of control | dose: 200.0 mg/kg/injection, schedule: Q01DX001 (oral), vehicle: saline 100 % of control | dose: 200.0 mg/kg/injection, schedule: Q01DX009 (oral), vehicle: saline 104 % of control | dose: 200.0 mg/kg/injection, schedule: Q03HX008 (ip), vehicle: saline 100 % of control | dose: 200.0 mg/kg/injection, schedule: Q03HX016 (ip), vehicle: saline 100 % of control | dose: 200.0 mg/kg/injection, schedule: Q03HX024 (ip), vehicle: saline 100 % of control | [2] 104 % of control | dose: 200.0 mg/kg/injection, schedule: Q04DX003 (ip), vehicle: saline 100 % of control | dose: 200.0 mg/kg/injection, schedule: Q08DX002 (ip), vehicle: saline 104 % of control | dose: 400.0 mg/kg/injection, schedule: Q01DX001 (ip), vehicle: saline 100 % of control | dose: 400.0 mg/kg/injection, schedule: Q01DX001 (oral), vehicle: saline 109 % of control | dose: 400.0 mg/kg/injection, schedule: Q01DX009 (ip), vehicle: saline 90 % of control | dose: 400.0 mg/kg/injection, schedule: Q01DX009 (oral), vehicle: saline 100 % of control | dose: 400.0 mg/kg/injection, schedule: Q03HX008 (ip), vehicle: saline 109 % of control | dose: 400.0 mg/kg/injection, schedule: Q03HX016 (ip), vehicle: saline 100 % of control | dose: 400.0 mg/kg/injection, schedule: Q03HX024 (ip), vehicle: saline 100 % of control | [3] 118 % of control | dose: 400.0 mg/kg/injection, schedule: Q04DX003 (ip), vehicle: saline 104 % of control | dose: 400.0 mg/kg/injection, schedule: Q08DX002 (ip), vehicle: saline 104 % of control | dose: 800.0 mg/kg/injection, schedule: Q01DX001 (ip), vehicle: saline 109 % of control | dose: 800.0 mg/kg/injection, schedule: Q01DX001 (oral), vehicle: saline 100 % of control | dose: 800.0 mg/kg/injection, schedule: Q01DX009 (oral), vehicle: saline 113 % of control | dose: 800.0 mg/kg/injection, schedule: Q03HX008 (ip), vehicle: saline 109 % of control | dose: 800.0 mg/kg/injection, schedule: Q03HX016 (ip), vehicle: saline 100 % of control | dose: 800.0 mg/kg/injection, schedule: Q03HX024 (ip), vehicle: saline 100 % of control | dose: 800.0 mg/kg/injection, schedule: Q04DX003 (ip), vehicle: saline 114 % of control | dose: 800.0 mg/kg/injection, schedule: Q08DX002 (ip), vehicle: saline 104 % of control

COc1ccc(S(=O)(=O)NNS(=O)(=O)c2ccc(OC)c(OC)c2)cc1OC
inactive: dose: 12.5 mg/kg/injection, schedule: Q01DX005 (ip), vehicle: saline with Tween-80 95 % of control | dose: 25.0 mg/kg/injection, schedule: Q01DX005 (ip), vehicle: saline with Tween-80 99 % of control | [4] 94 % of control and 96 % of control

O=C(NNCNNC(=O)c1ccncc1)c1ccncc1
inactive: [5] 100 % of control | [6] 100 % of control | [7] 96 % of control

COc1ccc2c(c1)CC[n+]1c-2ccc2c1CCC2=O
inactive: [4] 111 % of control

O=C(Nc1ccc(Br)cc1)Oc1ccc(Cl)cc1C(=O)c1ccccc1
inactive: [8] 105 % of control | [9] 105 % of control | [10] 108 % of control

O=S1(=O)CC2(N3CCOCC3)CCCCCC21 (centres undefined)
inactive: [1] 103 % of control | [2] 100 % of control | [3] 100 % of control

COc1ccc(/C(O)=C/c2nc3cccc([N+](=O)[O-])c3[nH]c2=O)cc1
inactive: dose: 15.0 mg/kg/injection, schedule: Q01DX005 (ip), vehicle: saline with Tween-80 91 % of control | dose: 30.0 mg/kg/injection, schedule: Q01DX005 (ip), vehicle: saline with Tween-80 91 % of control | dose: 60.0 mg/kg/injection, schedule: Q01DX005 (ip), vehicle: saline with Tween-80 86 % of control

Cc1ccc(Cl)cc1NC(=O)N(C)CCO
inactive: [8] 103 % of control | [9] 103 % of control | [10] 94 % of control

[CH3][Ge]1([CH3])[CH2]C(c2ccccc2)=C(c2ccccc2)[CH2]1
inactive: [8] 99 % of control | [9] 94 % of control | [10] 90 % of control

COc1ccc(S(=O)(=O)N/N=C\c2cc([N+](=O)[O-])ccc2O)cc1OC
inactive: [4] 109 % of control | [11] 109 % of control | [12] 100 % of control

COc1ccc2[s+]c(-c3ccccc3)ccc2c1
inactive: [8] 100 % of control | [9] 108 % of control | [10] 111 % of control

COC(=O)C1CP2(C)(C)N(C)C(=O)N2C1(c1ccccc1)c1ccccc1 (centres undefined)
inactive: [5] 102 % of control | [6] 102 % of control | [7] 112 % of control

O=C(/C=C/c1ccccc1Cl)c1ccccc1
inactive: dose: 50.0 mg/kg/injection, schedule: Q01DX009 (ip), vehicle: saline with Tween-80 112 % of control | dose: 100.0 mg/kg/injection, schedule: Q01DX009 (ip), vehicle: saline with Tween-80 110 % of control | dose: 200.0 mg/kg/injection, schedule: Q01DX009 (ip), vehicle: saline with Tween-80 114 % of control

CC(C)CC(NC(=O)C(CC(C)C)NC(=O)OCc1ccccc1)C(=O)O (centres undefined)
inactive: [4] 100 % of control | [11] 102 % of control | [12] 94 % of control

CCCNC(=O)OCCN(CCOC(=O)NCCC)CCc1cccc(OC)c1OC
inactive: dose: 60.0 mg/kg/injection, schedule: Q01DX005 (ip), vehicle: saline 101 % of control | dose: 120.0 mg/kg/injection, schedule: Q01DX005 (ip), vehicle: saline 105 % of control | dose: 240.0 mg/kg/injection, schedule: Q01DX005 (ip), vehicle: saline 100 % of control
